Measured values from patent US8383619B2, “Pharmaceutical compounds” (Astex Therapeutics Limited, priority 2008, dated 2013).

How the values were obtained:
Format in all cases: cell-based
[1] = system: one hundred cell lines; assay: Anti-proliferative assays against one hundred cell lines; details: wide range of different cell lines
Procedure: The anti-proliferative activities of the parent compounds of the pro-drugs of the invention may be determined by measuring the ability of the compounds to inhibition of cell growth in a number of cell lines such as the human colon cancer cell line HCT116. Inhibition of cell growth is measured using the Alamar Blue assay (Nociari, M. M, Shalev, A., Benias, P., Russo, C. Journal of Immunological Methods 1998, 213, 157-167). The method is based on the ability of viable cells to reduce resazurin to its fluorescent product resorufin. For each proliferation assay cells are plated onto 96 well plates and allowed to recover for 16 hours prior to the addition of inhibitor compounds for a further 72 hours. At the end of the incubation period 10% (v/v) Alamar Blue is added and incubated for a further 6 hours prior to determination of fluorescent product at […]. In the case of the non-proliferating cell assay cells are maintained at confluence for 96 hour prior to the addition of inhibitor compounds for a further 72 hours. The number of viable cells is determined by Alamar Blue assay as before. Cell lines may be obtained from the ECACC (European Collection of cell Cultures). […]

[2] = system: NCI-H520; assay: Anti-proliferative assay (Oncodesign); details: Homo sapiens; NCI-H520 (LUNG); read-out: IC50 (Concentration of test compound)
Procedure: (§1) The anti-proliferative activities of the parent compounds of the pro-drugs of the invention may be determined by measuring the ability of the compounds to inhibition of cell growth in a number of cell lines such as the human colon cancer cell line HCT116. Inhibition of cell growth is measured using the Alamar Blue assay (Nociari, M. M, Shalev, A., Benias, P., Russo, C. Journal of Immunological Methods 1998, 213, 157-167). The method is based on the ability of viable cells to reduce resazurin to its fluorescent product resorufin. For each proliferation assay cells are plated onto 96 well plates and allowed to recover for 16 hours prior to the addition of inhibitor compounds for a further 72 hours. At the end of the incubation period 10% (v/v) Alamar Blue is added and incubated for a further 6 hours prior to determination of fluorescent product at […]. In the case of the non-proliferating cell assay cells are maintained at confluence for 96 hour prior to the addition of inhibitor compounds for a further 72 hours. The number of viable cells is determined by Alamar Blue assay as before. Cell lines may be obtained from the ECACC (European Collection of cell Cultures).
(§2) The parent compound of the pro-drugs of Examples 1 to 25 i.e. (2,4-dihydroxy-5-isopropyl-phenyl)-[5-(4-methyl-piperazin-1-ylmethyl)-1,3-dihydro-isoindol-2-yl]-methanone, in the form of its L-lactate salt, was tested in anti-proliferative assays against one hundred cell lines by Oncodesign (Dijon, France). The IC50 values against each cell line are set out in the table below and the figures in the table refer to nanomolar concentrations. The compounds were tested up to a concentration of 10,000 nanomolar.

[3] = system: LoVo; assay: Anti-proliferative assay (Oncodesign); details: Homo sapiens; LoVo (COLON); read-out: IC50 (Concentration of test compound)
Procedure: as §1, §2

[4] = system: Calu-6; assay: Anti-proliferative assay (Oncodesign); details: Homo sapiens; Calu-6 (LUNG); read-out: IC50 (Concentration of test compound)
Procedure: as §1, §2

[5] = system: LAMA-84; assay: Anti-proliferative assay (Oncodesign); details: Homo sapiens; LAMA-84 (BLOOD); read-out: IC50 (Concentration of test compound)
Procedure: as §1, §2

[6] = system: NIH: OVCAR-3/CPT20; assay: Anti-proliferative assay (Oncodesign); details: Homo sapiens; NIH: OVCAR-3/CPT20 (OVARY); read-out: IC50 (Concentration of test compound)
Procedure: as §1, §2

[7] = system: A-431; assay: Anti-proliferative assay (Oncodesign); details: Homo sapiens; A-431 (SKIN); read-out: IC50 (Concentration of test compound)
Procedure: as §1, §2

[8] = system: ARH-77; assay: Anti-proliferative assay (Oncodesign); details: Homo sapiens; ARH-77 (BLOOD); read-out: IC50 (Concentration of test compound)
Procedure: as §1, §2

[9] = system: HCC1954; assay: Anti-proliferative assay (Oncodesign); details: Homo sapiens; HCC1954 (BREAST); read-out: IC50 (Concentration of test compound)
Procedure: as §1, §2

[10] = system: Hs 746T; assay: Anti-proliferative assay (Oncodesign); details: Homo sapiens, Hs746T; Hs 746T (STOMACH); read-out: IC50 (Concentration of test compound)
Procedure: as §1, §2

[11] = system: Caov-3; assay: Anti-proliferative assay (Oncodesign); details: Homo sapiens; Caov-3 (OVARY); read-out: IC50 (Concentration of test compound)
Procedure: as §1, §2

[12] = system: LS 174T; assay: Anti-proliferative assay (Oncodesign); details: Homo sapiens, LS174T; LS 174T (COLON); read-out: IC50 (Concentration of test compound)
Procedure: as §1, §2

[13] = system: LB1617-HNSCC; assay: Anti-proliferative assay (Oncodesign); details: LB1617-HNSCC (HEAD AND NECK); read-out: IC50 (Concentration of test compound)
Procedure: as §1, §2

[14] = system: DU 145; assay: Anti-proliferative assay (Oncodesign); details: Homo sapiens; DU 145 (PROSTATE); read-out: IC50 (Concentration of test compound)
Procedure: as §1, §2

[15] = system: HCT-15; assay: Anti-proliferative assay (Oncodesign); details: Homo sapiens; HCT-15 (COLON); read-out: IC50 (Concentration of test compound)
Procedure: as §1, §2

[16] = system: BB74-MEL; assay: Anti-proliferative assay (Oncodesign); details: BB74-MEL (SKIN); read-out: IC50 (Concentration of test compound)
Procedure: as §1, §2

[17] = system: A-498; assay: Anti-proliferative assay (Oncodesign); details: Homo sapiens, A498; A-498 (KIDNEY); read-out: IC50 (Concentration of test compound)
Procedure: as §1, §2

[18] = system: OCI-AML2; assay: Anti-proliferative assay (Oncodesign); details: Homo sapiens; OCI-AML2 (BLOOD); read-out: IC50 (Concentration of test compound)
Procedure: as §1, §2

[19] = system: MDA-MB-435S; assay: Anti-proliferative assay (Oncodesign); details: Homo sapiens; MDA-MB-435S (BREAST); read-out: IC50 (Concentration of test compound)
Procedure: as §1, §2

[20] = system: CCRF-CEM/VLB; assay: Anti-proliferative assay (Oncodesign); details: Homo sapiens; CCRF-CEM/VLB (BLOOD); read-out: IC50 (Concentration of test compound)
Procedure: as §1, §2

[21] = system: Evsa-T; assay: Anti-proliferative assay (Oncodesign); details: Homo sapiens; Evsa-T (BREAST); read-out: IC50 (Concentration of test compound)
Procedure: as §1, §2

[22] = system: RPMI 8226; assay: Anti-proliferative assay (Oncodesign); details: Homo sapiens; RPMI 8226 (BLOOD); read-out: IC50 (Concentration of test compound)
Procedure: as §1, §2

[23] = system: EHEB; assay: Anti-proliferative assay (Oncodesign); details: EHEB (BLOOD); read-out: IC50 (Concentration of test compound)
Procedure: as §1, §2

[24] = system: LB796-BLC; assay: Anti-proliferative assay (Oncodesign); details: LB796-BLC (URINARY BLADDER); read-out: IC50 (Concentration of test compound)
Procedure: as §1, §2

[25] = system: HCT 116; assay: Anti-proliferative assay (Oncodesign); details: Homo sapiens; HCT 116 (COLON); read-out: IC50 (Concentration of test compound)
Procedure: as §1, §2

SMILES: CC(C)c1cc(C(=O)N2Cc3ccc(CN4CCN(C)CC4)cc3C2)c(O)cc1O [(2,4-dihydroxy-5-isopropyl-phenyl)-[5-(4-methyl-piperazin-1-ylmethyl)-1,3-dihydro-isoindol-2-yl]-methanone]
- anti-proliferative activity [1]: potent anti-proliferative activity
- IC50 [2]: 98 nM
- IC50 [3]: 51 nM
- IC50 [4]: 32 nM
- IC50 [5]: 1100 nM
- IC50 [6]: > 10 µM
- IC50 [7]: 3.8 µM
- IC50 [8]: > 10 µM
- IC50 [9]: 28 nM
- IC50 [10]: 34 nM
- IC50 [11]: 94 nM
- IC50 [12]: 159 nM
- IC50 [13]: 139 nM
- IC50 [14]: 85 nM
- IC50 [15]: > 10 µM
- IC50 [16]: 162 nM
- IC50 [17]: 267 nM
- IC50 [18]: > 10 µM
- IC50 [19]: 26 nM
- IC50 [20]: > 10 µM
- IC50 [21]: 168 nM
- IC50 [22]: 10 nM
- IC50 [23]: > 10 µM
- IC50 [24]: 83 nM
- IC50 [25]: 38 nM
